The results in this text go back to patent publication US9877960B2 (priority 2012, dated 2018).

The nature of series [1]: Chromosome aberration test.
Series [2] relates to loser mice (mice in a depressive state). Nature of the series: Morris water maze test with mice in a depressive state (loser mice). Format: in vivo, mouse. Conditions: loser C57BL/6 mice. As to the method:
The active ingredient of the agents of the present invention has antidepressive action. Antidepressive action as SSRI may be measured by a method described in a published document (Exp Anim, 59(2), 191-197, 2010). Specifically, first, a Morris water maze test is conducted for 8 days using mice.
The active ingredient of the agents of the present invention has learning motivation improving action. The Morris water maze test has been reported as a method for measuring spatial memory and learning (Learn. Motiv. 12, 239-260 (1981)). In this test, the time required to reach an escape platform (escape latency) is used as a parameter for evaluation, because mice will remember their surrounding scenery and swim in a pool filled with water to try to find and reach the escape platform, which is a goal, with their memory as a guide. Since mice used in a main test are chosen from those which were subjected to the Morris water maze test for 8 days and could not reach the escape platform within […], a reduction in the time required to reach the escape platform can be regarded as an improvement in learning motivation.
Antidepressive action was measured in accordance with a published document (Exp Anim, 59(2), 191-197, 2010). […]

In series [3] the test system is mice. Nature of the series: Single-dose acute toxicity test. To be noted: 2 g/kg single dose. Format: in vivo, mouse.
The next series deals with rats. Type of series: in vivo. Conditions: 28-day repeated dose.
The subject of series [4] is mice. Nature of the series: Mice micronucleus test. Format: in vivo.
Series [5] concerns rats with scopolamine-induced impairment of learning. Nature of the series: Radial maze test using rats with scopolamine-induced impairment of learning. Format: in vivo, rat. To be noted: 200 mg/kg oral, scopolamine 0.5 mg/kg i.p., 8-direction radial maze. The procedure: Scopolamine is a non-selective competitive antagonist of muscarinic acetylcholine receptors. Laboratory animals with scopolamine-induced impairment of learning are widely used as a memory disorder model.
Using SD male rats which were 7 weeks of age, practice training was conducted while the rats were under food deprivation, and thereafter a main test was conducted.
Food was placed at the end of each arm of an 8-direction radial maze, and an animal was placed on a platform at the center of the maze. Completion of one trial was when the animal finished acquiring food from all arms or when 10 minutes elapsed since the animal was placed on the platform. The training was conducted once a day. “Correct choice” was defined as visiting an unselected arm in the trial, and “wrong choice” was defined as visiting an arm from where food had already been acquired.
2,5-Piperazinedione,3,6-bis(phenylmethyl)-,(3S,6S) was suspended in 0.5% CMC-Na, and 20 mg/kg and 200 mg/kg were orally administered to the rats which attained the standard in the above practice training trials. Ten minutes after the oral administration, 0.5 mg/kg of scopolamine was intraperitoneally administered. Thirty minutes after the intraperitoneal administration of scopolamine, an 8-direction radial maze test was conducted, and the number of wrong choices and the time taken for the […] to acquire all food were counted. […]

The test system of series [6] is serotonin in the prefrontal region. Nature of the series: Concentration of serotonin in the prefrontal region of rats by microdialysis. Type of series: in vivo, rat. The procedure: The active ingredient of the agents of the present invention has the effect of increasing the concentration of serotonin in the synaptic cleft via inhibitory activity on SERT binding.
Male SD rats which were 10 to 12 weeks of age were used. The concentration of serotonin in the prefrontal region of each rat was measured in accordance with a published document (Kehr J., and Yoshitake T. (2006) Monitoring brain chemical signals by microdialysis. In: Encyclopedia of Sensors, Vol. 6. (Eds. C. A. Grimes, E. C. Dickey and M. V. Pishko) American Scientific Publishers, USA. 287-312) by microdialysis. Specifically, a dialysis probe was implanted in the prefrontal region of each rat under isoflurane anesthesia. Five days after the implantation surgery, artificial cerebrospinal fluid (148 mM of NaCl, 4 mM of KCl, 0.8 mM of MgCl2, 1.4 mM of CaCl2, 1.2 mM of Na2HPO4, 0.3 mM of NaH2PO4, pH 7.2)) was perfused at the flow rate of 1 μl/min under ambulatory conditions without anesthesia. 2,5-Piperazinedione,3,6-bis(phenylmethyl)-,(3S,6S) was suspended in 0.5% sodium carboxymethylcellulose (CMC-Na), and 2 mg/kg, 20 mg/kg, and 200 mg/kg were orally administered for 14 consecutive days. The amount of […] in 15 μl of perfusion liquid collected immediately before the final oral administration and every 30 minutes after the oral administration was quantitatively determined by HPLC-ECD. The results obtained within the period from 1 hour before the oral administration to 3 hours after the oral administration are shown in FIG. 1, where the time immediately before the oral administration of the test sample is set to 0 minute.

The subject of series [7] is acetylcholine in the hippocampus. Nature of the series: Concentration of acetylcholine in the hippocampus of rats by microdialysis. Format: in vivo, rat. To be noted: 200 mg/kg oral once. The source says: It is considered that the hippocampus region of the brain, in which a cholinergic neuron is known to be involved, has a function related to learning and memory. Since cholinergic neuron is impaired in degenerative disease with symptoms such as reduced learning and memory, an increase in the concentration of acetylcholine in the hippocampus will improve the symptoms such as reduced learning and memory. The concentration of acetylcholine in the rat hippocampus was increased about 2.5-fold, as measured by microdialysis, by the active ingredient of the agents of the present invention.
A dialysis probe was embedded in the hippocampus of each rat, and measurement was conducted as in Example 1. 2,5-Piperazinedione,3,6-bis(phenylmethyl)-,(3S,6S) was suspended in 0.5% CMC-Na, and 200 mg/kg was orally administered once. The amount of acetylcholine in 15 μl of perfusion liquid collected immediately before the […] oral administration and every 30 minutes after the oral administration was quantitatively determined by HPLC-ECD. The results obtained within the period from 1 hour before the oral administration to 3 hours after the oral administration are shown in FIG. 3, where the time immediately before the oral administration of the test sample is set to 0 minute. […]

Another series deals with AChE (Homo sapiens, UniProt P22303). Nature of the series: AChE inhibitory action with MATP+ substrate. Type of series: biochemical. Conditions: absorbance at 412 nm, read-out: concentration (IC50) required for 50% inhibition of AChE. As to the method: The active ingredient of the agents of the present invention has AChE inhibitory action. AChE inhibitory action may be measured with MATP+ (1,1-dimethyl-4-acetylthiomethylpiperidine), which is a substrate having high selectivity for AChE (Biol Pharma Bull, 33(4), 702-706, 2010). Specifically, AChE is reacted with MATP+, and measurement is conducted using as an indicator a change in absorbance at 412 nm associated with reaction of detection reagent DNTB (5,5′-dithiobis(2-nitrobenzoic acid)).
Chain of AChE (P22303 32-614): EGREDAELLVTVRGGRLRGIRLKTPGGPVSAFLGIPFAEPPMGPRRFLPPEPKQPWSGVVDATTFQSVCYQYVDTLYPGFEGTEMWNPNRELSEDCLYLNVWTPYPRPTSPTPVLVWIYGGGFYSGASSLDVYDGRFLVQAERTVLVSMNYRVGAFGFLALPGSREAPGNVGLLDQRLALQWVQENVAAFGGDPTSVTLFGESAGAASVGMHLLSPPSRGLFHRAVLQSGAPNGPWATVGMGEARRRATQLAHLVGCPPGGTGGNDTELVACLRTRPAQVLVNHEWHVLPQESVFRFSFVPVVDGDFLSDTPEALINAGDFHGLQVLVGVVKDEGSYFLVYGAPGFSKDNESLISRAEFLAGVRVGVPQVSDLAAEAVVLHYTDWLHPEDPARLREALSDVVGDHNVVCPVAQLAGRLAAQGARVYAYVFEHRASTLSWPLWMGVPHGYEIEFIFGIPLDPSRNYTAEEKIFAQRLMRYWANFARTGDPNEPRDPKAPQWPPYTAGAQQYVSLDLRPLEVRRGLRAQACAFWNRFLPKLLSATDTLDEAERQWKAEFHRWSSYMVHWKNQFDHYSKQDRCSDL
AChE inhibitory action was measured with MATP+ (1,1-dimethyl-4-acetylthiomethylpiperidine), which is a substrate having high selectivity for AChE (Biol Pharma Bull, 33(4), 702-706, 2010). Specifically, AChE was reacted with MATP+, and measurement was conducted using as an indicator a change in absorbance at 412 nm associated with reaction of detection reagent DNTB (5,5′-dithiobis(2-nitrobenzoic acid)).

The mark [8] stands for this setting: listed as active ingredient of the agents of the present invention.

“Also recorded” adds a separate entry of the source.

Consider `O=C1N[C@@H](Cc2ccccc2)C(=O)N[C@H]1Cc1ccccc1` [2,5-piperazinedione,3,6-bis(phenylmethyl)-,(3S,6S)], for which the “mutagenicity in chromosome aberration test” value in [1] is reported as “no mutagenicity”. Also, the escape latency entry in series [2] (oral 0.2 mg/kg or more) is “reduced significantly”; in series [2] (oral 0.02, 0.2, 2 and 20 mg/kg, dose dependence), “dose-dependent, significant reduction; also recorded: reduced dose-dependently”. Besides, the “toxicity in single-dose acute toxicity test” value in the series on mice [3] is reported as “no toxicity”. In addition, the no-observable-effect level in the series on rats is reported as not below 10 mg/kg/day. Further, in the series on mice [4], the “mutagenicity in mice micronucleus test” value is “no mutagenicity”. The “mutagenicity in Ames test” value in the series “Ames test” was “no mutagenicity”. Also, the “percentage of correct choices” value is given as “improved significantly” in [5] and “significantly improved” in series [5] (setting [8]). Moreover, the “concentration of serotonin in the prefrontal region” value is “increased significantly” in series [6] (male SD rats, 20 mg/kg oral, 14 consecutive days); “increased significantly” in [6] (male SD rats, 200 mg/kg oral, 14 consecutive days); “increased dose-dependently and significantly” in series [6] (normal rats, oral for 2 weeks, across doses). Moreover, the “increase of concentration of acetylcholine in the hippocampus” value is 2.5 fold in [7] and “about 2.5 fold” in [7] (setting [8]). Besides, the IC50 on AChE worked out at 3.4 µM.
